Patent US20070105960A1, “Treatment of learning disabilities and motor skills disorder with norepinephrine reuptake inhibitors” (ELI LILLY AND COMPANY, priority 2003, published 2007)
“Also recorded” adds a separate entry of the source.

What was measured:
rats [1] = assay: Object recognition test; type: in vivo, rat; settings: three hour delay, 60 minutes pre-treatment, FIG. 2
Procedure: (§1) The effects of atomoxetine on learning and memory in rats are evaluated in two different animal models. In an 8-arm radial maze delayed non-match to sample (DNMTS) task, well-trained rats recall where they received rewards during an information phase in order to obtain the remaining rewards during a retention phase conducted after a delay of several hours. Performance in this task is influenced by the administration of putative amnesics and cognitive enhancers (Staubli U, Rogers G, Lynch G (1994) Facilitation of glutamate receptors enhances memory. Proc Natl Acad Sci USA 91: 777-781; Pilcher J J, Sessions G R, McBride S A (1997) Scopolamine impairs spatial working memory in the radial maze: an analysis by error type and arm choice. Pharmacol Biochem Behav 58: 449-459; Pussinen R, Sirvio J (1999) Effects of D-cycloserine, a positive modulator of N-methyl-D-aspartate receptors, and ST 587, a putative alpha-1 adrenergic agonist, individually and in combination, on the non-delayed and delayed foraging behaviour of rats assessed in the radial arm maze. […]
During the testing phase of the experiment, rats are administered appropriate vehicle or drug (N=9/dose) and placed back in their home cage for the pre-treatment period (60 minutes). […] The time spent sniffing (nose <2.5 cm from the object), gnawing, or touching the objects with the front paws is recorded. […]

rats [2] = assay: 8-arm radial maze delayed non-match to sample task; type: in vivo, rat; settings: FIG. 1
Procedure: as §1, with “maze. J Psychopharinacol 13:171-179; Wolff M. C., Leander, J. David (2003) A comparison of the effects of antipsychotics on a delayed radial maze task in the rat. Psychopharmacolology 168:410-416).” for “maze.”

## CNCC[C@@H](Oc1ccccc1C)c1ccccc1 [atomoxetine, (R)-(−)-N-methyl-3-(2-methyl-phenoxy)-3-phenylpropylamine]
Rats [1]
  object recognition: improves object recognition; also recorded: improvement of object recognition
Rats [2]
  errors in the 8 arm radial maze retention paradigm: reduction of errors
Rats [2]; oral, 7 hour delay
  learning and memory performance in the 8 arm radial maze: improves learning and memory performance
